How the values were obtained:
Type in all cases: in vivo
Orobanche minor [1] = experiment: Test Example 1: seed soaking treatment, parasitism of Orobanche minor on red clover; conditions: for Average parasitism frequency per root / S4 bud formation per root: seed soaking 24 h; for Average parasitism frequency per root: red clover host, untreated plot 2.55; for S4 bud formation per root: untreated plot 0.52
Protocol: Red clover seeds were soaked for 24 hours in agent liquid which had been prepared into a predetermined concentration. The red clover seeds were sowed in a pot packed with soil (1/10000 ares) and Orobanche minor seeds were sowed around the red clover seeds, followed by cultivation in a greenhouse. Growth of the red clover and the parasitism frequency and growth of Orobanche minor were observed by visual observation. The growth of Orobanche minor was evaluated based on the following four steps. [table]

Orobanche minor [2] = experiment: Test Example 2: soil irrigation treatment, parasitism of Orobanche minor on red clover; conditions: for Average parasitism frequency per root: soil irrigation 20 ml/pot at 10, 20 and 30 days after sowing, untreated plot 2.55; for S4 bud formation per root: untreated plot 0.52
Protocol: The red clover seeds were sowed in a pot packed with soil (1/10000 ares) and Orobanche minor seeds were sowed around the red clover seeds, followed by cultivation in a greenhouse. After 10, 20 and 30 days of the sowing, an agent liquid prepared into a predetermined concentration was irrigation-treated at a ratio of 20 ml/pot.

Orobanche minor [3] = experiment: Test Example 3: foliage application treatment, parasitism of Orobanche minor on red clover; conditions: for Average parasitism frequency per root: foliage application at 10, 20 and 30 days after sowing, untreated plot 2.55; for S4 bud formation per root: untreated plot 0.52
Description: (§1) The red clover seeds were sowed in a pot packed with soil (1/10000 ares) and Orobanche minor seeds were sowed around the red clover seeds, followed by cultivation in a greenhouse. After 10, 20 and 30 days of the sowing, sufficient amount of agent liquid diluted to a predetermined concentration with water was applied to the foliage using an atomizer, from single- to double-leaf stage of the red clover.

Orobanche minor [4] = experiment: Test Example 4: seed soaking treatment, parasitism of Orobanche minor on red clover; conditions: for S4 bud formation per root / Average parasitism frequency per root: seed soaking 24 h; for S4 bud formation per root: untreated plot 0.45; for Average parasitism frequency per root: untreated plot 2.08
Protocol: Red clover seeds were soaked for 24 hours in agent liquid which had been prepared into a predetermined concentration. The red clover seeds were sowed in a pot packed with soil (1/10000 ares) and Orobanche minor seeds were sowed around the red clover seeds, followed by cultivation in a greenhouse. Growth of the red clover and the parasitism frequency and growth of Orobanche minor were observed by visual observation.

Orobanche minor [5] = experiment: Test Example 5: soil irrigation treatment, parasitism of Orobanche minor on red clover; conditions: for Average parasitism frequency per root: soil irrigation 20 ml/pot at 10, 20 and 30 days after sowing, untreated plot 2.08; for S4 bud formation per root: untreated plot 0.45
Protocol: (§2) The red clover seeds were sowed in a pot packed with soil (1/10000 ares) and Orobanche minor seeds were sowed around the red clover seeds, followed by cultivation in a greenhouse. After 10, 20 and 30 days of the sowing, agent liquid prepared into a predetermined concentration was irrigation-treated at a ratio of 20 ml/pot.

Orobanche minor [6] = experiment: Test Example 6: foliage application treatment, parasitism of Orobanche minor on red clover; conditions: for Average parasitism frequency per root: foliage application at 10, 20 and 30 days after sowing, untreated plot 2.08; for S4 bud formation per root: untreated plot 0.45
Description: as §1

red clover = experiment: Test Example 5: phytotoxicity of soil irrigation treatment on red clover; conditions: symptom growth inhibition
Protocol: as §2

parasitic plant = experiment: Parasitic plant controlling activity (general statement); conditions: general statement in the description
crop plants = experiment: Phytotoxicity for crop plants (general statement); conditions: general statement in the description
[7] = seed soaking, all treatment plots (200 and 20 ppm)

With `Cc1ccc(NC(=O)c2snnc2C)cc1Cl` [TDN, tiadinil] the “Average parasitism frequency per root” value (Orobanche minor [1]; 20 ppm) was 1.07 per root, the “S4 bud formation per root” value (Orobanche minor [1]; 20 ppm) was 0.08 per root and the “Average parasitism frequency per root” value (Orobanche minor [1]; 200 ppm) was 2.57 per root. The “S4 bud formation per root” value (Orobanche minor [1]; 200 ppm) was 0.21 per root, the “Average parasitism frequency per root” value (Orobanche minor [1]; 2000 ppm) was 2.01 per root and the “S4 bud formation per root” value (Orobanche minor [1]; 2000 ppm) was 0.15 per root. The “number of total parasitized cases of Orobanche minor” value (Orobanche minor [1]; seed soaking, 20 ppm) was “reducing tendency”, the effective concentration (Orobanche minor [2]; soil irrigation) was at least 200 ppm and the “parasitism, dose relation” value (Orobanche minor [2]; soil irrigation) was “dose-related lowering”. The “Average parasitism frequency per root” value (Orobanche minor [2]; 2 ppm) was 2.36 per root, the “Average parasitism frequency per root” value (Orobanche minor [2]; 20 ppm) was 1.71 per root and the “Average parasitism frequency per root” value (Orobanche minor [2]; 200 ppm) was 0.53 per root. For the same compound, the “Average parasitism frequency per root” value (Orobanche minor [2]; 2000 ppm) was 0.03 per root, the “S4 bud formation per root” value (Orobanche minor [2]; soil irrigation, 2 ppm) was 0.17 per root and the “S4 bud formation per root” value (Orobanche minor [2]; soil irrigation, 20 ppm) was 0.10 per root. The “S4 bud formation per root” value (Orobanche minor [2]; soil irrigation, 200 ppm) was 0.16 per root, the Parasitism (Orobanche minor [2]; soil irrigation, 2000 ppm) was “hardly found” and the “S4 bud formation per root” value (Orobanche minor [2]; soil irrigation, 2000 ppm) was 0.00 per root. The “parasitism, dose relation” value (Orobanche minor [3]; foliage application) was “dose-related lowering”, the “Average parasitism frequency per root” value (Orobanche minor [3]; 20 ppm) was 1.49 per root and the “Average parasitism frequency per root” value (Orobanche minor [3]; 200 ppm) was 1.02 per root. The “Average parasitism frequency per root” value (Orobanche minor [3]; 2000 ppm) was 0.24 per root, the “S4 bud formation per root” value (Orobanche minor [3]; foliage application, 20 ppm) was 0.15 per root and the “S4 bud formation per root” value (Orobanche minor [3]; foliage application, 200 ppm) was 0.06 per root. For the same compound, the effect on parasitism (Orobanche minor [3]; foliage application, 2000 ppm) was “high effect”, the “S4 bud formation per root” value (Orobanche minor [3]; foliage application, 2000 ppm) was 0.03 per root and the “S4 bud formation per root” value (Orobanche minor [4]; 20 ppm) was 0.10 per root. For the same compound, the “Average parasitism frequency per root” value (Orobanche minor [4]; 20 ppm) was 1.12 per root, the “S4 bud formation per root” value (Orobanche minor [4]; 200 ppm) was 0.12 per root and the “Average parasitism frequency per root” value (Orobanche minor [4]; 200 ppm) was 0.05 per root. The S4 bud formation (Orobanche minor [4]; [7]) was “decreasing tendency”, the “total parasitism frequency of Orobanche minor” value (Orobanche minor [4]; [7]) was “decreasing tendency” and the “Average parasitism frequency per root” value (Orobanche minor [5]; 20 ppm) was 2.22 per root. The “Average parasitism frequency per root” value (Orobanche minor [5]; 200 ppm) was 1.55 per root, the “Average parasitism frequency per root” value (Orobanche minor [5]; 2000 ppm) was 0.22 per root and the “S4 bud formation per root” value (Orobanche minor [5]; soil irrigation, 20 ppm) was 0.13 per root. The “S4 bud formation per root” value (Orobanche minor [5]; soil irrigation, 200 ppm) was 0.11 per root, the parasitism frequency (Orobanche minor [5]; soil irrigation, 2000 and 200 ppm) was “reducing tendency” and the “S4 bud formation per root” value (Orobanche minor [5]; soil irrigation, 2000 ppm) was 0.07 per root. The “S4 bud formation” value (Orobanche minor [5]; soil irrigation, all treatment plots) was “reduced”, the “Average parasitism frequency per root” value (Orobanche minor [6]; 20 ppm) was 2.25 per root and the “Average parasitism frequency per root” value (Orobanche minor [6]; 200 ppm) was 1.92 per root. The “Average parasitism frequency per root” value (Orobanche minor [6]; 2000 ppm) was 0.34 per root, the “S4 bud formation per root” value (Orobanche minor [6]; foliage application, 20 ppm) was 0.49 per root and the “parasitism frequency decreasing tendency” value (Orobanche minor [6]; foliage application, 200 ppm or less) was “unclear”. For the same compound, the “S4 bud formation per root” value (Orobanche minor [6]; foliage application, 200 ppm) was 0.35 per root, the S4 bud formation (Orobanche minor [6]; foliage application, 2000 and 200 ppm) was “decreasing tendency” and the parasitism frequency (Orobanche minor [6]; foliage application, 2000 ppm) was “decreasing tendency”. The “S4 bud formation per root” value (Orobanche minor [6]; foliage application, 2000 ppm) was 0.15 per root, the phytotoxicity (red clover; 200 ppm) was “weak” and the phytotoxicity (red clover; 2000 ppm) was “strong”. For the same compound, the “parasitic plant controlling activity” value (parasitic plant) was “high” and the phytotoxicity (crop plants) was “low”.
